# From patent US20230111853A1, “COMPOUNDS MODULATING PROTEIN RECRUITMENT AND/OR DEGRADATION” (Orionis Biosciences, Inc., priority 2019, published 2023)
# Test system: IKZF1, ASS1 and SALL4 recruitment to CRBN
# Experiment: Recruitment assessment: recruitment of any tested substrate from among IKZF1, ASS1 and SALL4
# Assay type: cell-based
# Conditions: any tested substrate at any tested compound concentration
# Procedure: In this experimental set-up, cells were transfected with a construct encoding a CRBN-fusion protein and another one encoding a substrate-fusion protein. Test compound activity was assessed with increasing concentrations of test compounds (dose-response studies) to monitor the ability to promote CRBN-ligand-induced protein interaction.
# Full size proteins were fused for each of the target proteins tested, except in the case of IKZF1 where isoform 7 was used. For the study, the following were used: IKZF1 recruitment: pSEL-CRBN+pMG1-IKZF1(isoform 7); ASS1 recruitment: pSEL-CRBN+pMG1-ASS1. SALL4 recruitment: pSEL-SALL4+pMG1-CRBN. […] Luciferase activity was measured 24 hours after test compound treatment using the Luciferase Assay System kit (PROMEGA, Madison, Wis.) with an Ensight plate reader (PERKIN ELMER LIFE SCIENCES, Waltham, Mass.). Data points depicted fold induction of the average luciferase activity of triplicate samples from EPO+test compound treated cells versus EPO only treated cells. Error bars represent standard deviations. Curves were fit using 4-parameter nonlinear regression in […] PRISM software.
row,SMILES,Recruitment Assessment
1,"O=C1CCC(N2Cc3ccccc3C2=O)C(=O)N1 (single isomer, unassigned) [5′-OH-THL, 3-(1-oxoisoindolin-2-yl)piperidine-2,6-dione, reference compound]",FALSE
2,O=C1N=c2ccc(NC(=O)NCc3ccccc3)cc2=N1 [1-benzyl-3-(2-oxobenzimidazol-5-yl)urea],FALSE
3,"O=C(O)CNc1cccc2c1CN(C1CCC(=O)NC1=O)C2=O (stereo not drawn) [2-[[2-(2,6-dioxo-3-piperidyl)-1-oxo-isoindolin-4-yl]amino]acetic acid]",FALSE
4,"O=C1CCC(N2C(=O)c3ccccc3C2OCc2ccccc2)C(=O)N1 (stereo not drawn) [3-(1-benzyloxy-3-oxo-isoindolin-2-yl)piperidine-2,6-dione]",FALSE
5,"O=C1CCC(N2Cc3ccccc3C2=O)C(=O)N1 (stereo not drawn) [3-(1-oxoisoindolin-2-yl)piperidine-2,6-dione]",TRUE
6,"Nc1cccc2c1C(=O)N(C1CCC(=O)NC1=O)C2 (stereo not drawn) [3-(7-amino-1-oxo-isoindolin-2-yl)piperidine-2,6-dione]",TRUE
7,"O=C1CCC(N2C(=O)c3ccccc3C2OC2CCCCC2)C(=O)N1 (stereo not drawn) [3-[1-(cyclohexoxy)-3-oxo-isoindolin-2-yl]piperidine-2,6-dione]",FALSE
8,"O=C1CCC(N2C(=O)c3ccccc3C2Nc2ccccc2)C(=O)N1 (stereo not drawn) [C10537, 3-(1-anilino-3-oxo-isoindolin-2-yl)piperidine-2,6-dione]",FALSE
9,COc1ccc(C2c3ccccc3C(=O)N2C2CCC(=O)NC2=O)cc1 (stereo not drawn) [C11892],FALSE
10,"O=C1CCC(N2Cc3ccc(NCC(=O)N4CCCCC4)cc3C2=O)C(=O)N1 (stereo not drawn) [C12581, 3-[1-oxo-6-[[2-oxo-2-(1-piperidyl)ethyl]amino]isoindolin-2-yl]piperidine-2,6-dione]",FALSE
11,"CC1CCN(C(=O)CNc2ccc3c(c2)C(=O)N(C2CCC(=O)NC2=O)C3)CC1 (stereo not drawn) [C12582, 3-[6-[[2-(4-methyl-1-piperidyl)-2-oxo-ethyl]amino]-1-oxo-isoindolin-2-yl]piperidine-2,6-dione]",FALSE
12,"CC1CCCN(C(=O)CNc2ccc3c(c2)C(=O)N(C2CCC(=O)NC2=O)C3)C1 (stereo not drawn) [C12583, 3-[6-[[2-(3-methyl-1-piperidyl)-2-oxo-ethyl]amino]-1-oxo-isoindolin-2-yl]piperidine-2,6-dione]",FALSE
13,"CC1CCCCN1C(=O)CNc1ccc2c(c1)C(=O)N(C1CCC(=O)NC1=O)C2 (stereo not drawn) [C12584, 3-[6-[[2-(2-methyl-1-piperidyl)-2-oxo-ethyl]amino]-1-oxo-isoindolin-2-yl]piperidine-2,6-dione]",FALSE
14,"CC1CN(C(=O)CNc2ccc3c(c2)C(=O)N(C2CCC(=O)NC2=O)C3)CCO1 (stereo not drawn) [C12586, 3-[6-[[2-(2-methylmorpholin-4-yl)-2-oxo-ethyl]amino]-1-oxo-isoindolin-2-yl]piperidine-2,6-dione]",FALSE
15,"O=C1CCC(N2Cc3ccc(NCC(=O)N4CC5CC4CO5)cc3C2=O)C(=O)N1 (stereo not drawn) [C12589, 3-[6-[[2-(2-oxa-5-azabicyclo[2.1.1]heptan-5-yl)-2-oxo-ethyl]amino]-1-oxo-isoindolin-2-yl]piperidine]",FALSE
16,"CC1CN(C)CCN1C(=O)CNc1ccc2c(c1)C(=O)N(C1CCC(=O)NC1=O)C2 (stereo not drawn) [C12595, 3-[6-[[2-(2,4-dimethylpiperazin-1-yl)-2-oxo-ethyl]amino]-1-oxo-isoindolin-2-yl]piperidine-2,6-dione]",FALSE
17,"CN1CCN(C(=O)CNc2ccc3c(c2)C(=O)N(C2CCC(=O)NC2=O)C3)CC1=O (stereo not drawn) [C12597, 3-[6-[[2-(4-methyl-3-oxo-piperazin-1-yl)-2-oxo-ethyl]amino]-1-oxo-isoindolin-2-yl]piperidine-2,6-dione]",FALSE
18,"CC1CN(C(=O)CNc2ccc3c(c2)C(=O)N(C2CCC(=O)NC2=O)C3)CC(=O)N1 (stereo not drawn) [C12598, 3-[6-[[2-(3-methyl-5-oxo-piperazin-1-yl)-2-oxo-ethyl]amino]-1-oxo-isoindolin-2-yl]piperidine-2,6-dione]",FALSE
19,"CC1CC(NC(=O)CNc2ccc3c(c2)C(=O)N(C2CCC(=O)NC2=O)C3)CCO1 (stereo not drawn) [C12695, 2-[[2-(2,6-dioxo-3-piperidyl)-3-oxo-isoindolin-5-yl]amino]-N-(2-methyltetrahydropyran-4-yl)acetamide]",FALSE
20,"CC1CCCN(C(=O)CNc2ccc3c(c2)C(=O)N(C2CCC(=O)NC2=O)C3)CC1 (stereo not drawn) [C12697, 3-[6-[[2-(4-methylazepan-1-yl)-2-oxo-ethyl]amino]-1-oxo-isoindolin-2-yl]piperidine-2,6-dione]",FALSE
21,"O=C1CCC(N2C(=O)CCC2=O)C(=O)N1 (stereo not drawn) [C14950, 3-(2,5-dioxopyrrolidin-1-yl)piperidine-2,6-dione]",FALSE
22,"O=C1Cc2ccccc2C(=O)N1 [C15352, 4H-isoquinoline-1,3-dione]",FALSE
23,"O=C1c2ccccc2CC1n1ccc(=O)[nH]c1=O (stereo not drawn) [C16899, 1-(1-oxoindan-2-yl)pyrimidine-2,4-dione]",FALSE

row,SMILES,Recruitment Assessment
1,"CNC(=O)Nc1cccc2c1CN(C1CCC(=O)NC1=O)C2=O (stereo not drawn) [C22594, 1-[2-(2,6-dioxo-3-piperidyl)-1-oxo-isoindolin-4-yl]-3-methyl-urea]",TRUE
2,"O=C1CCC(CN2C(=O)c3ccccc3C2=O)C(=O)N1 (stereo not drawn) [C23258, 2-[(2,6-dioxo-3-piperidyl)methyl]isoindoline-1,3-dione]",FALSE
3,"Cc1cccc2c1C(=O)N(C1CCC(=O)NC1=O)C2 (stereo not drawn) [C28661, 3-(7-methyl-1-oxo-isoindolin-2-yl)piperidine-2,6-dione]",FALSE
4,"O=C1CCC(N2Cc3cc(O)ccc3C2=O)C(=O)N1 (stereo not drawn) [C28891, 3-(5-hydroxy-1-oxo-isoindolin-2-yl)piperidine-2,6-dione]",TRUE
5,"O=C1CCC(N2Cc3ccc(O)cc3C2=O)C(=O)N1 (stereo not drawn) [C28928, 3-(6-hydroxy-1-oxo-isoindolin-2-yl)piperidine-2,6-dione]",TRUE
6,"O=C1CCC(N2Cc3cccc(O)c3C2=O)C(=O)N1 (stereo not drawn) [C28973, 3-(7-hydroxy-1-oxo-isoindolin-2-yl)piperidine-2,6-dione]",TRUE
7,"COc1cccc2c1C(=O)N(C1CCC(=O)NC1=O)C2 (stereo not drawn) [C29137, 3-(7-methoxy-1-oxo-isoindolin-2-yl)piperidine-2,6-dione]",FALSE
8,"CC(=O)Nc1cccc2c1CN(C1CCC(=O)NC1=O)C2=O (stereo not drawn) [C29330, N-[2-(2,6-dioxo-3-piperidyl)-1-oxo-isoindolin-4-yl]acetamide]",TRUE
9,"CC(=O)Nc1ccc2c(c1)C(=O)N(C1CCC(=O)NC1=O)C2 (stereo not drawn) [C29408, N-[2-(2,6-dioxo-3-piperidyl)-3-oxo-isoindolin-5-yl]acetamide]",FALSE
10,"CC(=O)Nc1cccc2c1C(=O)N(C1CCC(=O)NC1=O)C2 (stereo not drawn) [C29457, N-[2-(2,6-dioxo-3-piperidyl)-3-oxo-isoindolin-4-yl]acetamide]",TRUE
11,"NC(=O)Nc1cccc2c1CN(C1CCC(=O)NC1=O)C2=O (stereo not drawn) [C29490, [2-(2,6-dioxo-3-piperidyl)-1-oxo-isoindolin-4-yl]urea]",TRUE
12,"O=C1c2c(F)c(F)c(F)c(F)c2C(=O)N1c1ccc(F)cc1F [C34491, 2-(2,4-difluorophenyl)-4,5,6,7-tetrafluoro-isoindoline-1,3-dione]",FALSE
13,"Nc1cccc2c(=O)n(C3CCC(=O)NC3=O)nnc12 (stereo not drawn) [C35833, 3-(8-amino-4-oxo-1,2,3-benzotriazin-3-yl)piperidine-2,6-dione]",FALSE
14,"COc1cnccc1C(=O)Nc1ccc2c(c1)=NC(=O)N=2 [C36124, 3-methoxy-N-(2-oxobenzimidazol-5-yl)pyridine-4-carboxamide]",FALSE
15,"O=C1CCc2cc(C(=O)N3CCCc4ccccc43)cnc2N1 [C36126, 6-(3,4-dihydro-2H-quinoline-1-carbonyl)-3,4-dihydro-1H-1,8-naphthyridin-2-one]",FALSE
16,"O=C1CCc2cc(C(=O)N3CCc4cccnc43)cnc2N1 [C36128, 6-(2,3-dihydropyrrolo[2,3-b]pyridine-1-carbonyl)-3,4-dihydro-1H-1,8-naphthyridin-2-one]",FALSE
17,"Cc1c(N)cccc1C(=O)NC1CCC(=O)NC1=O (stereo not drawn) [C38930, 3-amino-N-(2,6-dioxo-3-piperidyl)-2-methyl-benzamide]",FALSE
18,"NC(=O)c1ccc2c(c1)C(=O)N(C1CCC(=O)NC1=O)C2 (stereo not drawn) [C39772, 2-(2,6-dioxo-3-piperidyl)-3-oxo-isoindoline-5-carboxamide]",FALSE
19,"O=C1CCC(Nc2cnc3ccccc3n2)C(=O)N1 (stereo not drawn) [C44292, 3-(quinoxalin-2-ylamino)piperidine-2,6-dione]",FALSE
20,"O=C1CCC(N2Cc3ccc(C(F)(F)F)cc3C2=O)C(=O)N1 (stereo not drawn) [C45748, 3-[1-oxo-6-(trifluoromethyl)isoindolin-2-yl]piperidine-2,6-dione]",FALSE
21,"O=C1CCC(N2C(=O)c3ccccc3C2NC(=O)c2ccccc2)C(=O)N1 (stereo not drawn) [C46003, N-[2-(2,6-dioxo-3-piperidyl)-3-oxo-isoindolin-1-yl]benzamide]",FALSE
22,"Nc1cccc2c1CN(C1CC(=O)NC(=O)C1)C2=O [C47927, 4-(4-amino-1-oxo-isoindolin-2-yl)piperidine-2,6-dione]",TRUE
